# Test results as given in patent US20210369699A1, “TREATMENT OF LUPUS ERYTHEMATOSUS USING S-HYDROXYCHLOROQUINE” (Genovate Biotechnology Co. Ltd., priority 2020, published 2021).
# Where two headings read alike, the source gives them in different places.
# How the values were obtained:
# [1] = tested on: IL-17 production in human peripheral blood mononuclear cells (PBMC); assay: IL-17 production in PMA/ionomycin-stimulated PBMC (ELISA); type: cell-based; conditions: for IL-17 pg/mL (mean ± SD): n = 3; for inhibition at 25 µM / inhibition at 50 µM / inhibition at 100 µM / inhibition at 5 µM: PBMC; for inhibition at 25 µM / inhibition at 50 µM / inhibition at 100 µM / (%) inhibition / inhibition at 5 µM: IL-17 synthesis
# Procedure: Hydroxychloroquine (HCQ) and its pure optical isomers S-hydroxychloroquine (S-HCQ; enantiomeric excess of 99.0%) and R-hydroxychloroquine (R-HCQ; enantiomeric excess of 98.3%) were tested in an in vitro pharmacodynamic assay to determine their efficacy at inhibiting interleukin 17 (IL-17) production in human peripheral blood mononuclear cells (PBMC) stimulated with phorbol myristate acetate (PMA) and ionomycin.
# Cells were cultured at 37° C. with 5% CO2 in RPMI-1640 medium (Gibco, 11875-093) supplemented with 10% Fetal Bovine Serum (Gibco, 10437-028), 10 mM HEPES (Gibco, 15630-080), and 100 U/mL Penicillin/Streptomycin (Gibco, 15140-122).
# PBMC were seeded at a density of 10^6 cells/ml in each well of a 96-well round bottom microplate (Corning, 7007) then stimulated with 25 ng/ml PMA and 1 μg/ml ionomycin in the absence and presence of 25 μM, 50 μM, or 100 μM HCQ, S-HCQ or R-HCQ each dissolved in ethanol. The final concentration of ethanol in the culture medium was 0.75%. PBMC treated with 5 μM methylprednisolone served as a positive control.
# After incubation for 48 or 72 hours, the cell culture supernatants were collected and stored at −80° C. until analysis. The levels of IL-17 induced by PMA/ionomycin-stimulated PBMC were analyzed using human IL-17 Quantikine ELISA Kit (R & D system, D1700) according to product information.
# [2] = Body weight of treated MRL/lpr mice
# Procedure: Pharmacodynamics of HCQ, S-HCQ, and R-HCQ was examined in MRL/lpr mice, a model for human cutaneous lupus erythematosus. […] Eight-week old MRL/lpr mice, were purchased from Jackson Laboratory (ME, USA) and maintained on a 12 h light and dark cycle with constant temperature and humidity control. Animals were given water and food ad-libitum.
# Groups of 14-15 mice were treated starting at the age of −15 weeks old with vehicle (10% EtOH in PBS), with low dose (20 mg/kg) or high dose (40 mg/kg) HCQ, S-HCQ, or R-HCQ. Mice in the vehicle and low dose groups were treated orally once daily for 16 weeks from age 15 to 31 weeks. Mice in the high dose groups were treated orally once daily for 14 weeks from age 15 to 29 weeks. Dosing volumes were kept consistent at 10 mL/kg.
# MRL/lpr mice treated with vehicle or with 20 mg/kg HCQ, S-HCQ, or R-HCQ were weighed once per week from day 0 (initial day of dosing) to day 111. Animals in the 40 mg/kg groups were weighed daily from day 0 to day 90.
# MRL/lpr mice [3] = assay: Blood urea nitrogen and creatinine concentration in plasma of MRL/lpr mice; type: in vivo; conditions: end of study; for creatinine concentration in plasma: FIG. 4B
# Procedure: (§1) See Furukawa et al., 1996, J. Invest. Dermatol. 107; 95-100; Furukawa et al., 2009, Autoimmun. Rev. 8:495-499; and Shimomatsu et al., 2016, Mod. Rheumatol. 26:744-748. […] Animals were given water and food ad-libitum.
# (§2) Dosing volumes were kept consistent at 10 mL/kg.
# Plasma was prepared from blood samples collected at the end of the study. They were analyzed for blood urea nitrogen (BUN) level and creatinine concentration using a FUJI DRI-CHEM 4000i instrument as directed by the manufacturer. Elevated BUN and creatinine levels indicate compromised kidney function.
# [4] = biological target: T1, human ether-a-go-go-related gene (hERG) voltage-gated potassium channel (Homo sapiens, UniProt Q12809); assay: In vitro cardiotoxicity assay: hERG patch-clamp in HEK-293 cells
# T1 sequence (Q12809 whole entry): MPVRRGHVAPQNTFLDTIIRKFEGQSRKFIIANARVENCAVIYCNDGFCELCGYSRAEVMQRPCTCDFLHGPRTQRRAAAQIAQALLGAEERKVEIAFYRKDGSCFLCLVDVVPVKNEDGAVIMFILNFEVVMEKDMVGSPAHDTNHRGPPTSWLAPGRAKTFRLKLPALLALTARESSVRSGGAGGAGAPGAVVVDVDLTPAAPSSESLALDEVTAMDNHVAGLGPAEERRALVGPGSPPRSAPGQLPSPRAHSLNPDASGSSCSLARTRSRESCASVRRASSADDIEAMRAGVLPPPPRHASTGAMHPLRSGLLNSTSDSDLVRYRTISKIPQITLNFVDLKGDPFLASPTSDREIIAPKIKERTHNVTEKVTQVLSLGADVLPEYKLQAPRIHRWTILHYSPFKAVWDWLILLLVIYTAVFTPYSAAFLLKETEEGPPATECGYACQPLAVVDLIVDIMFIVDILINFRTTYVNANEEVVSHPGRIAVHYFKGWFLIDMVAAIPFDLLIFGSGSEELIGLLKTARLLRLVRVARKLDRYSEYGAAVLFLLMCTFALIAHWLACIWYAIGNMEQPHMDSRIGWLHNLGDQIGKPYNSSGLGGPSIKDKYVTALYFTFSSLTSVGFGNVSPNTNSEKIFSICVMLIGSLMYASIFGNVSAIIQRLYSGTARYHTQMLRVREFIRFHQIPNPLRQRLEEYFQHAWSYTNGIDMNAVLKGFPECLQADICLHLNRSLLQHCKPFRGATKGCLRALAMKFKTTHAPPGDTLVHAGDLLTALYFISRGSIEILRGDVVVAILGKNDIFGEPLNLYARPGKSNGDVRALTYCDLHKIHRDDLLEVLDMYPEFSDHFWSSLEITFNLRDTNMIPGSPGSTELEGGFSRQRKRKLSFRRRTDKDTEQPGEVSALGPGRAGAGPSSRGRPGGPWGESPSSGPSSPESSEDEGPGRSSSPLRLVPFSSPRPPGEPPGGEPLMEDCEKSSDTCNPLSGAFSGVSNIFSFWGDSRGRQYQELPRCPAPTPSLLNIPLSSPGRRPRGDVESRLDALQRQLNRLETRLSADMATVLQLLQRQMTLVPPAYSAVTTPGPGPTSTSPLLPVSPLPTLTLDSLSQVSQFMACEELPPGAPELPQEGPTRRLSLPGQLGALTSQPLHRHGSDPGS
# Procedure: (§3) A conventional patch-clamp technique was used to determine inhibitory effects on hERG. Human embryonic kidney cells (HEK-293) stably transfected with human hERG cDNA were plated on collagen-coated 35-mm cell culture dishes at low density for 1-7 days. For single-cell patch-clamp recording, the intracellular solution contained 130 mM KCl, 10 mM NaCl, 1 mM MgCl2, 10 mM EGTA, 5 mM MgATP, and 10 mM HEPES (pH adjusted to 7.2 with KOH). The extracellular solution contained acellular Solution (mM): 137 mM NaCl, 4 mM KCl, 1.8 mM CaCl2, 1 mM MgCl2, 10 mM D(+)-Glucose, and 10 mM HEPES (pH adjusted to 7.4 with NaOH). All measurements were performed at room temperature.
# (§4) After cell capture, a pulse protocol was implemented that involved stepping from a holding potential of −80 mV to +40 mV for 4 s to inactivate hERG channels. The membrane voltage was then stepped back to −50 mV for 4 s to evoke a tail current prior to returning to the holding potential. This sequence was repeated with an inter-pulse interval of 20 s. […] Evoked peak tail current amplitudes were continuously monitored throughout the experiment. Each compound was applied from low to high concentrations sequentially to the same cell for five minutes.
# (§5) The percent inhibition of hERG channel was calculated by comparing the tail current amplitude before and after application of the compound, the current difference being normalized to control. The amplitude of the hERG peak tail current was calculated by measuring the tail current on stepping to −50 mV. The current was measured before and after each compound addition. […] Percent inhibition values were used to calculate the IC50 for each tested compound.
# [5] = biological target: T1, human ether-a-go-go-related gene (hERG) voltage-gated potassium channel
# Procedure: as §3, §4, §5
# MRL/lpr mice [6] = assay: Survival of treated MRL/lpr mice; type: in vivo; conditions: observed 70-80 days
# Procedure: as §1, §2
# The number of live and dead mice was recorded each day beginning from the first dosing day at age 15 weeks.
# MRL/lpr mice [7] = assay: Skin lesions in treated MRL/lpr mice; type: in vivo; conditions: for mean score of skin lesions versus time (onset of skin inflammation and lesions): HCQ and R-HCQ, FIG. 3A
# Procedure: as §1, §2
# Inflammation and skin lesions in the MRL/lpr mice were scored twice per week from the regions of dorsal neck, forehead, snout, and ears using a previously described scoring scale. See Keil et al., 2016, Arthritis Res. Ther. 18:243. Briefly, animals with no skin lesions were scored as 0, those having minimal hair loss with redness and a few scattered lesions were scored as 1, and those with redness, scabbing, and hair loss with a small area of involvement were scored as 2.
# The mean score of skin lesions in each group from Day 68 to Day 111 for vehicle and low dose groups and from Day 68 to Day 90 for high dose groups after first dosing were plotted and are shown in FIG. 3A.
# The data was reanalyzed by comparing the average skin lesion scores for each treatment over the entire test period. The skin lesion scores from day 68 to day 111 after initial dosing were averaged for the vehicle and the low dose groups and compared, as shown in FIG. 3B. The skin lesion scores from day 68 to day 90 after initial dosing were averaged for the vehicle and the high dose groups and compared, as shown in FIG. 3C.
# [8] = 25 μM, 48 h, PMA/ionomycin-stimulated PBMC
# [9] = 25 μM, 72 h, PMA/ionomycin-stimulated PBMC
# [10] = 50 μM, 48 h, PMA/ionomycin-stimulated PBMC
# [11] = 50 μM, 72 h, PMA/ionomycin-stimulated PBMC
# [12] = 100 μM, 48 h, PMA/ionomycin-stimulated PBMC
# [13] = 100 μM, 72 h, PMA/ionomycin-stimulated PBMC
Compound,"IL-17 pg/mL (mean ± SD) [1, 8]","IL-17 pg/mL (mean ± SD) [1, 9]","IL-17 pg/mL (mean ± SD) [1, 10]","IL-17 pg/mL (mean ± SD) [1, 11]","IL-17 pg/mL (mean ± SD) [1, 12]","IL-17 pg/mL (mean ± SD) [1, 13]",creatinine concentration in plasma (MRL/lpr mice [3]; 20 mg/kg orally once daily),IC50 [5],"(%) inhibition ([1]; 25 μM, 48 h)","(%) inhibition ([1]; 25 μM, 72 h)","(%) inhibition ([1]; 50 μM, 48 h)","(%) inhibition ([1]; 50 μM, 72 h)","(%) inhibition ([1]; 100 μM, 48 h)","(%) inhibition ([1]; 100 μM, 72 h)",creatinine concentration in plasma (MRL/lpr mice [3]; 40 mg/kg orally once daily),further results
"CCN(CCO)CCCC(C)Nc1ccnc2cc(Cl)ccc12 (racemic) [HCQ, Hydroxychloroquine]",480.4 ± 13.1 pg/mL,502.4 ± 20.7 pg/mL,344.8 ± 12.2 pg/mL,341.1 ± 47.4 pg/mL,214.5 ± 15.3 pg/mL,203.0 ± 10.8 pg/mL,lower,–,–,–,–,–,–,–,–,"inhibition at 25 µM ([1]; Homo sapiens, 25 μM, 48 h): 3%; inhibition at 25 µM ([1]; Homo sapiens, 25 μM, 72 h): 23%; inhibition at 50 µM ([1]; Homo sapiens, 50 μM, 48 h): 30%; inhibition at 50 µM ([1]; Homo sapiens, 50 μM, 72 h): 48%; inhibition at 100 µM ([1]; Homo sapiens, 100 μM, 48 h): 57%; inhibition at 100 µM ([1]; Homo sapiens, 100 μM, 72 h): 69%; IC50 ([1]; Homo sapiens, PMA/ionomycin-stimulated PBMC, 48 h or 72 h, read-out: absolute IC50 of IL-17 inhibition): 50 to 100 µM; mean body weight vs vehicle ([2]; 20 mg/kg orally once daily, day 0 to day 111, FIG. 1A): No obvious difference in mean body weight; mean body weight vs vehicle ([2]; 40 mg/kg orally once daily, day 0 to day 90, FIG. 1B): No obvious difference in mean body weight; IC50 [4]: 4.84 µM"
"CCN(CCO)CCCC(C)Nc1ccnc2cc(Cl)ccc12 (stereo not drawn) [R-HCQ, R-hydroxychloroquine]",471.6 ± 32.9 pg/mL,564.0 ± 72.9 pg/mL,289.4 ± 34.7 pg/mL,326.8 ± 33.6 pg/mL,154.0 ± 18.1 pg/mL,179.2 ± 31.8 pg/mL,lower,4.2 µM,5%,13%,42%,50%,69%,72%,lower,–
"CCN(CCO)CCC[C@H](C)Nc1ccnc2cc(Cl)ccc12 [S-HCQ, S-hydroxychloroquine]",432.6 ± 28.9 pg/mL,486.5 ± 8.9 pg/mL,292.0 ± 21.6 pg/mL,354.6 ± 52.5 pg/mL,215.0 ± 24.6 pg/mL,248.9 ± 38.9 pg/mL,–,11 µM,13%,25%,41%,45%,57%,62%,most significant decrease in creatinine concentration,"blood urea nitrogen (BUN) level in plasma (MRL/lpr mice [3]; 40 mg/kg orally once daily, compared to any other treatments, FIG. 4A): significantly lower; fractional survival compared to vehicle, HCQ and R-HCQ (MRL/lpr mice [6]; 20 mg/kg orally once daily, FIG. 2A): higher fractional survival; fractional survival compared to vehicle, HCQ and R-HCQ (MRL/lpr mice [6]; 40 mg/kg orally once daily, FIG. 2B): higher fractional survival; average skin lesion score over the test period vs vehicle (MRL/lpr mice [7]; 20 mg/kg (low dose), day 68 to day 111, t-test p<0.005, FIG. 3B): significantly reduced skin lesion scores; mean score of skin lesions versus time (onset of skin inflammation and lesions) (MRL/lpr mice [7]; 20 mg/kg orally once daily, Day 68 to Day 111, compared to vehicle): superior in reducing the onset of skin inflammation and lesions; average skin lesion score over the test period vs vehicle (MRL/lpr mice [7]; 40 mg/kg (high dose), day 68 to day 90, t-test p<0.005, FIG. 3C): significantly reduced skin lesion scores; mean score of skin lesions versus time (onset of skin inflammation and lesions) (MRL/lpr mice [7]; 40 mg/kg orally once daily, Day 68 to Day 90, compared to vehicle): superior in reducing the onset of skin inflammation and lesions"
C[C@H]1C[C@@H]2[C@H]([C@@H](O)C[C@@]3(C)[C@H]2CC[C@]3(O)C(=O)CO)[C@@]2(C)C=CC(=O)C=C12 [methylprednisolone],–,–,–,–,–,–,–,–,–,–,–,–,–,–,–,"IL-17 pg/mL (mean ± SD) ([1]; 5 μM, 48 h, PMA/ionomycin-stimulated PBMC): 266.7 ± 15.3 pg/mL; IL-17 pg/mL (mean ± SD) ([1]; 5 μM, 72 h, PMA/ionomycin-stimulated PBMC): 282.0 ± 37.6 pg/mL; inhibition at 5 µM ([1]; Homo sapiens, 5 μM, 48 h): 46%; inhibition at 5 µM ([1]; Homo sapiens, 5 μM, 72 h): 57%"
